Data reported in PMC3509773 (The botulinum journal, 2011).

Experiments:
Type in all cases: biochemical
[1] = target: MMP-2 (Homo sapiens, UniProt P08253); settings: read-out: IC50 MMP-2 (FRET assay)
[2] = target: MMP-9 (Homo sapiens, UniProt P14780); settings: read-out: IC50 MMP-9 (FRET assay)
[3] = target: MMP-1 (Homo sapiens, UniProt P03956); settings: read-out: IC50 MMP-1 (FRET assay)
[4] = target: BoNT/B LC (Clostridium botulinum, UniProt P10844); settings: read-out: IC50 BoNT/B LC FRET
[5] = target: BaLF (Bacillus anthracis, UniProt P15917); settings: read-out: IC50 BaLF FRET
[6] = target: BoNT/A LC (Clostridium botulinum, UniProt P0DPI0)
BoNT/A LC, sequence (P0DPI0 2-448 limits assumed): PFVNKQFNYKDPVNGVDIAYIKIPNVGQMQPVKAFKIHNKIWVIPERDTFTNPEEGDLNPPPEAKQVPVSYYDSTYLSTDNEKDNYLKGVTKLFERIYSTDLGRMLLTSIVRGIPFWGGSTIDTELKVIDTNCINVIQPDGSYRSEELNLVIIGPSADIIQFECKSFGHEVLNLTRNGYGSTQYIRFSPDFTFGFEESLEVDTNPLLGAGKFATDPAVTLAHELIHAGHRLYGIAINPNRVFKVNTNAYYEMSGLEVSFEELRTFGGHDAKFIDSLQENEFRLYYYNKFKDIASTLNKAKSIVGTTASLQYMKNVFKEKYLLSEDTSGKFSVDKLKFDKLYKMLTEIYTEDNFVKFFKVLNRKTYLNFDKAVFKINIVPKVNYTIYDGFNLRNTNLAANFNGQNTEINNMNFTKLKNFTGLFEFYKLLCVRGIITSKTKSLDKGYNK

BoNT/B LC, sequence (P10844 2-441 limits assumed): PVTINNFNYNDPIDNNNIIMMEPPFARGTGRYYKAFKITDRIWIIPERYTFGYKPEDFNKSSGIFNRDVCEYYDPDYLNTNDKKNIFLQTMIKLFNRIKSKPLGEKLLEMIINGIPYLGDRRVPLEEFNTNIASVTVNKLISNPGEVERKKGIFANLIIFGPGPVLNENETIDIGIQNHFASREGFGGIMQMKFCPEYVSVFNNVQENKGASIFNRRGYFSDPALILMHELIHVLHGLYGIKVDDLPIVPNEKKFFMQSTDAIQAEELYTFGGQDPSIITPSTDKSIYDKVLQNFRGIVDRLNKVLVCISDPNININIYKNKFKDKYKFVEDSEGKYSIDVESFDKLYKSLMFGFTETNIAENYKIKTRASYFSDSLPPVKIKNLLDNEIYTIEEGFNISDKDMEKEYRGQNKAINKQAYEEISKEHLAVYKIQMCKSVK
MMP-2, sequence (P08253 110-660): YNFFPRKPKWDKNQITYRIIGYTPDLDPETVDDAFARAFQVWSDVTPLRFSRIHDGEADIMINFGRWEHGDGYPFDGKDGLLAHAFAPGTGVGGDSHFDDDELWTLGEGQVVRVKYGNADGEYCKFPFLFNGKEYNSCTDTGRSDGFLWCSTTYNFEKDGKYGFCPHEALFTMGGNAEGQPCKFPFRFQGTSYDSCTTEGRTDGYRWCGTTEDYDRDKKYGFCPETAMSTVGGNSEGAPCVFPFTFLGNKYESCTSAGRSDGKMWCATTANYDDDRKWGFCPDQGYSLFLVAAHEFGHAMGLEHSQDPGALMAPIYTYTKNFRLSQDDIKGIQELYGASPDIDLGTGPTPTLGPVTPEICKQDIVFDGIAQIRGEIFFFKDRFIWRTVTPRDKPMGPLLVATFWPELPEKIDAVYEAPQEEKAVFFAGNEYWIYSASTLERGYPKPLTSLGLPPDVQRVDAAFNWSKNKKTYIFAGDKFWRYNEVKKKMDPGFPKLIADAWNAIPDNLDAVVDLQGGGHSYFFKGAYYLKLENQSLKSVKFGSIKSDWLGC
MMP-1, sequence (P03956 100-469): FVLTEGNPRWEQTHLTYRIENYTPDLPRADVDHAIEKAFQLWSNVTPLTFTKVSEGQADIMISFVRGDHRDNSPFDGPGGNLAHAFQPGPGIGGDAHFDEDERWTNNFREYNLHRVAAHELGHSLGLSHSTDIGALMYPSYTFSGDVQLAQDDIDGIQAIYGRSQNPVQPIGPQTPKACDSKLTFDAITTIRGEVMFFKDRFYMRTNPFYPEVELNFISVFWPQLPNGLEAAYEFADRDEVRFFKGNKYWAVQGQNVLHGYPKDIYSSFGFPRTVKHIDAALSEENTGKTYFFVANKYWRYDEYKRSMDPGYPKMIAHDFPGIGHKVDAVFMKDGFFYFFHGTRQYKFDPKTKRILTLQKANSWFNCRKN
BaLF, sequence (P15917 34-809 limits assumed): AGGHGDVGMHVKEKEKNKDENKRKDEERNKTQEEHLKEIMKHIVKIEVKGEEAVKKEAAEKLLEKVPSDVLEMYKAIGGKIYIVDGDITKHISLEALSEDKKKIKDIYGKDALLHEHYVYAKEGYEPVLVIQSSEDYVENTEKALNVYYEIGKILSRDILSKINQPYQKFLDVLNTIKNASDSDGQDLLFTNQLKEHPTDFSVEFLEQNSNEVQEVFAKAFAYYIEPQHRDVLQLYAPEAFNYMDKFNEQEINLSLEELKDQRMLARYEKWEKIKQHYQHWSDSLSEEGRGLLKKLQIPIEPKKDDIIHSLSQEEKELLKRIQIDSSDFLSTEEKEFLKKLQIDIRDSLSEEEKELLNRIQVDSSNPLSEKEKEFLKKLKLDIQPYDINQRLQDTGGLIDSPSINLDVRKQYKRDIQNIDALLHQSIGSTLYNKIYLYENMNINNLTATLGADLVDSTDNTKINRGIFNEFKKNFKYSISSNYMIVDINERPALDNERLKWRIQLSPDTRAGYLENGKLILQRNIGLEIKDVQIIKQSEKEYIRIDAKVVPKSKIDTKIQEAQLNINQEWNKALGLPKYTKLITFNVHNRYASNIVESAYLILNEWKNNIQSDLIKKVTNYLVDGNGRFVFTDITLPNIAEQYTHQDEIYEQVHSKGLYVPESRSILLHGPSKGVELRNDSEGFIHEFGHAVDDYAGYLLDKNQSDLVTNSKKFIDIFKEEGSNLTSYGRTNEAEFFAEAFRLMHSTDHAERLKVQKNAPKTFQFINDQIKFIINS
MMP-9, sequence (P14780 94-707): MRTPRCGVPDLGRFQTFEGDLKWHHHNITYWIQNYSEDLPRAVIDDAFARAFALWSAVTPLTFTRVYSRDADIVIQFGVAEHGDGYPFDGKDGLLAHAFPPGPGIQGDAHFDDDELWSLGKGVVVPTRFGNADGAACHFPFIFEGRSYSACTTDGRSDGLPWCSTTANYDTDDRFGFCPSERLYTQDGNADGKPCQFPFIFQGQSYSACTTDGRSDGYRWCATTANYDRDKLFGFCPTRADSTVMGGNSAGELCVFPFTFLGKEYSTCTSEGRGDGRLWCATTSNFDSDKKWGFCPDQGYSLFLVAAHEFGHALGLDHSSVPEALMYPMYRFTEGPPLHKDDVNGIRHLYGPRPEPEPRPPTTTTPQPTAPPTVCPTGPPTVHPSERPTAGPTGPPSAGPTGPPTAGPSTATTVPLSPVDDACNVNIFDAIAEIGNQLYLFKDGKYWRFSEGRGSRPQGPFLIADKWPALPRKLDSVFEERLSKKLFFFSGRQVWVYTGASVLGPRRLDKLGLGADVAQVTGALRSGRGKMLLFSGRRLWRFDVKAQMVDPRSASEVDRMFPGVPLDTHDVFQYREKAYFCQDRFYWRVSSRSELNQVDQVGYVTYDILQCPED

SMILES | IC50 [1] [µM] | IC50 [2] [µM] | IC50 [3] [µM] | IC50 [4] [µM] | IC50 [5] [µM] | inhibition of BoNT/A LC activity [6]
O=C(C=Cc1ccc(Cl)cc1Cl)NO [Hydroxamate, N-Hydroxy-2,4-dichlorocinnanamide] | > 100 | > 100 | > 100 | > 100 | > 100 | –
[Cl-].[Cl-].[Zn+2] [zinc chloride] | – | – | – | – | – | 4–5%
